Measurements as given in patent US10954276B2, “Enzyme-based protein separation and enrichment from soy meal, wheat meal, and other protein-rich materials derived from plant seeds, fruits and other biomass” (THE UNIVERSITY OF AKRON, priority 2012, dated 2021).
≈ marks a conversion by molar mass, not a printed value.

Key:
Debaryomyces hansenii = assay: MIC study of benzoic acid for the growth of Debaryomyces hansenii; format: cell-based
Procedure: D. hansenii was inoculated first in a pre-culture medium with the following medium composition (g/L): Glucose 10, Peptone 5, Malt extract 3 and yeast extract 3. A pre-culture was performed in a 250 ml Erlenmeyer flask with 50 ml culture volume in an orbital shaker at 250 rpm and at a temperature of 30° C. After 36 hours, 5% inoculum is transferred into systems with the different benzoic acid concentrations shown in Table 11 and the medium composition shown in Table 12, each system in a 250 ml Erlenmeyer flask with a 50 ml working volume. These flasks were placed in an orbital shaker at 250 rpm and a temperature of 30° C. Samples were taken every 24 h for 3 days and the pH and cell concentrations were measured and recorded.
Cell growth was measured as optical density (OD) by measuring the absorbance of the washed cells at 610 nm with UV-vis spectrophotometer. A known amount of sample was centrifuged at 8000 rpm for 10 min and the supernatant was separated and saved for further analysis. Cell pellet was washed with DI water and centrifuge again under same conditions. Cell pellet was dispersed in water and the absorbance was measured at 610 nm.

[1] = system: another strain of Debaryomyces hansenii; conditions: cited from earlier work
[2] = system: bacterial growth present as spores in the soy flour; assay: Sodium benzoate concentration to inhibit bacterial growth in soy flour hydrolysis; format: cell-based; conditions: soy flour enzyme hydrolysis
Procedure: Sodium benzoate (Na.B) was used to inhibit the bacterial growth present as spores in the soy flour that was being used for enzyme hydrolysis enrichment of the soy proteins. Different sodium benzoate concentrations were studied to determine the best concentration of sodium benzoate to inhibit bacterial growth. It was determined that Na.B level of 2 g/L was effective. The hydrolysate byproduct of enzyme hydrolysis of the soy flour having different sugars was intended to be used for arabitol production using Debaryomyces hansenii. In order for this enzyme hydrolysate to be suitable for arabitol production, however, the sodium benzoate must be removed. Accordingly, the maximum concentration that could remain in the hydrolysate that is not inhibitory for D. hansenii growth was determined by this MIC of Na.B test with D. hansenii.

bacterial growth = assay: Preservatives against bacterial growth during soybean meal enzyme hydrolysis (pH profile); format: cell-based; conditions: preservative 2 g/L, 50° C., initial pH 4.8
Procedure: Systems that were considered in this section are identified on Table 16. All the systems contain 10 g of soybean meal. The enzyme hydrolysis was performed in 250 ml Erlenmeyer flasks which were agitated in orbital shaker at 250 rpm and at 50° C.
For control system, only water was added (no enzyme was added). For non-sterilized system, 10 g of soybean meal was mixed with 4 ml of enzyme broth and about 70 ml DI water. In the case of liquid autoclave system, 10 g of soybean meal was mixed with about 40 ml DI water and was autoclaved for 15 min. After autoclaving, an additional 30 ml of DI water (sterile) and 4 ml of enzyme broth were added. For vacuum autoclave systems, 10 g of soybean meal was autoclaved dry under vacuum cycle in the autoclave with no water for 15 and 45 min, respectively. After the autoclave cycle, 4 ml of enzyme broth and an additional 30 ml of DI water (sterile) was added. In case the sodium benzoate and sodium nitrite systems, 10 g of soybean meal was mixed with 2 g/L of either sodium benzoate or sodium nitrite, enzyme broth and DI water. There was no autoclaving or heating step used in these preservatives systems. The activity of the enzymes in the broth used for these experiments is shown on Table 17. The pH of all of the systems was adjusted to 4.8. Samples were taken periodically for the measurement of reducing sugars.

Row | Structure (SMILES) | MIC (Debaryomyces hansenii; Debaryomyces hansenii, read-out: MIC against the growth of D. hansenii) | Specific growth rate (μ), (Debaryomyces hansenii; benzoic acid 0.01 g/L) | effect on D. hansenii growth (Debaryomyces hansenii; benzoic acid 0.01 g/L) | Specific growth rate (μ), (Debaryomyces hansenii; benzoic acid 0.025 g/L) | Specific growth rate (μ), (Debaryomyces hansenii; benzoic acid 0.05 g/L) | Specific growth rate (μ), (Debaryomyces hansenii; benzoic acid 0.10 g/L) | Specific growth rate (μ), (Debaryomyces hansenii; benzoic acid 0.25 g/L) | cell growth measured as OD (Debaryomyces hansenii; benzoic acid 0.25 g/L) | MIC concentration [1] | level effective to inhibit bacterial growth [2] | bacterial growth judged from pH profile (bacterial growth)
1 | O=C(O)c1ccccc1 [Benzoic acid] | 250 µg/mL (≈ 2050 µM) | 0.089 h⁻¹ | very little inhibitory effect | 0.082 h⁻¹ | 0.079 h⁻¹ | 0.075 h⁻¹ | 0.022 h⁻¹ | almost no cell growth | 0.4 to 0.5 g/L | – | –
2 | O=C([O-])c1ccccc1.[Na+] [sodium benzoate, Sodium benzoate] | – | – | – | – | – | – | – | – | – | 2 g/L | absence of bacterial growth
3 | O=NO [sodium nitrite] | – | – | – | – | – | – | – | – | – | – | absence of bacterial growth
